Melting point data for 1 molecule are collected here from patent US20080107625A1, “Inhibitors of Hepatitis C Virus” (Bristol-Myers Squibb Company, priority 2006, published 2008).

Molecules are shown by their SMILES.

In general, melting point refers to the temperature, or range, at which the solid turns liquid. The molecule `CC(C)(C)OC(=O)N[C@H]1CCCOC/C=C\[C@@H]2C[C@@]2(C(=O)NS(=O)(=O)C2CC2)NC(=O)[C@@H]2C[C@@H](OCc3ccccc3)CN2C1=O` [Compound 5, (1S,4R,6S,14S,18R,7-cis)-18-benzyloxy-14-tert-butoxycarbonylamino-4-cyclopropanesulfonylaminocarbonyl-2,15-dioxo-3,16-diaza-10-oxatricyclo[14.3.0.04,6]nonadec-7-ene] had a melting point of 147 to 149 °C.
